Experimental data: ChEMBL document CHEMBL1759972, “Phenoxyacetic acids as PPARδ partial agonists: synthesis, optimization, and in vivo efficacy” (Bioorg Med Chem Lett, 2011)

Experiments:
[1] = biological target: T1, Peroxisome proliferator-activated receptor delta (Homo sapiens, UniProt Q03181)
T1 sequence (Q03181 whole entry): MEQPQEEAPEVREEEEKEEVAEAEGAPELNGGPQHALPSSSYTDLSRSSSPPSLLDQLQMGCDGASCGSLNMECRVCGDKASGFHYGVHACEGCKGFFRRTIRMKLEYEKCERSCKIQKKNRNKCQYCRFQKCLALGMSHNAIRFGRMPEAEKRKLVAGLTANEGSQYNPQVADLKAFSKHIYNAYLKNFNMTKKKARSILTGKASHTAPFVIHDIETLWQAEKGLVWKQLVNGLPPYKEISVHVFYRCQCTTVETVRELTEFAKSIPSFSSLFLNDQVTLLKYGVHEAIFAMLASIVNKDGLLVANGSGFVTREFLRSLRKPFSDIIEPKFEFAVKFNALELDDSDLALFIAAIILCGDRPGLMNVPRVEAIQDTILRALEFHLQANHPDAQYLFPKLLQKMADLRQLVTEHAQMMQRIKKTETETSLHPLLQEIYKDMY
Description: Displacement of [3H]GW 2433 from human PPARdelta by scintillation proximity assay

[2] = biological target: T1, Peroxisome proliferator-activated receptor delta; remark: listed apart in the source
Description: Partial agonist activity at human PPARdelta expressed in african green monkey CV1 cells transfected with Gal4 assessed as beta-galactosidase activity by transactivation assay

[3] = biological target: T2, Peroxisome proliferator-activated receptor alpha (Homo sapiens, UniProt Q07869); experiment: Displacement of [3H]GW 2433 from human PPARalpha by scintillation proximity assay
T2 sequence (Q07869 whole entry): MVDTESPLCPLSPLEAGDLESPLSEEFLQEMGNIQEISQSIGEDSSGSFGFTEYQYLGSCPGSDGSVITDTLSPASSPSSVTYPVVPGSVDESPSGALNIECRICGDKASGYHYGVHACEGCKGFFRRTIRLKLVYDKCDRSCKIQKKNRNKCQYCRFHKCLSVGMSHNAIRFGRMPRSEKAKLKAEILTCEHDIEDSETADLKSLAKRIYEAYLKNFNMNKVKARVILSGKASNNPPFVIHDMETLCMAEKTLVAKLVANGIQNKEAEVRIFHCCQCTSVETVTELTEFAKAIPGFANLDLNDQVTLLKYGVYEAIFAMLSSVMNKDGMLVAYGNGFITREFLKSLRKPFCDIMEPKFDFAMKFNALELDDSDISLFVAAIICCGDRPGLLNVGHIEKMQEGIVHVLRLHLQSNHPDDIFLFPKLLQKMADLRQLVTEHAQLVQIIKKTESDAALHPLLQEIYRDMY

[4] = biological target: T3, Peroxisome proliferator-activated receptor gamma (Homo sapiens, UniProt P37231)
T3 sequence (P37231 whole entry): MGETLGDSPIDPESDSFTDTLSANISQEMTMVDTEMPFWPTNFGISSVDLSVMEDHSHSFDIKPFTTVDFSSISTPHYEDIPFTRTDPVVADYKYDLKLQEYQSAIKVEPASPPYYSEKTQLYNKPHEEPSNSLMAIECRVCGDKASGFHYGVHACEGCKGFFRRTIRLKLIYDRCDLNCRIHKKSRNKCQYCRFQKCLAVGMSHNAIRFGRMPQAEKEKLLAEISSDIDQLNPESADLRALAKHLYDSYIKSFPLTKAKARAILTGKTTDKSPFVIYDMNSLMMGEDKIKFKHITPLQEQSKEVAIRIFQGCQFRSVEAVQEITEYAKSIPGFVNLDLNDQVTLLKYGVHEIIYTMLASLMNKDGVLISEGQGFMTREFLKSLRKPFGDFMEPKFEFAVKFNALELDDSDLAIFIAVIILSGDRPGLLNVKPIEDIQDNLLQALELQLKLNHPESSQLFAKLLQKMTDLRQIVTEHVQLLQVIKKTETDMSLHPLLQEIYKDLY
Description: Displacement of [3H]GW 2433 from human PPARgamma by scintillation proximity assay

| SMILES | IC50 [1] | EC50 [2] | IC50 [3] | IC50 [4] |
| --- | --- | --- | --- | --- |
| CCCCCN(c1cccc(-c2ccc(Cl)cc2)c1C)S(=O)(=O)c1ccc(OC(C)C(=O)O)c(C)c1C (stereo not drawn) | 794 nM | 398 nM | 15800 nM | – |
| Cc1c(-c2ccc(Cl)cc2)cccc1N(CC1CCC1)S(=O)(=O)c1ccc(OC(C)C(=O)O)c(C)c1C (stereo not drawn) | 1000 nM | 501 nM | 12600 nM | – |
| CCCCN(c1cccc(-c2ccc(Cl)cc2)c1C)S(=O)(=O)c1ccc(OC(C)C(=O)O)c(Cl)c1Cl (stereo not drawn) | 79.4 nM | 63.1 nM | 10000 nM | – |
| COCCN(c1cccc(-c2ccc(Cl)cc2)c1C)S(=O)(=O)c1ccc(OC(C)C(=O)O)c(C)c1C (stereo not drawn) | 501 nM | 501 nM | > 20000 nM | – |
| CCCCN(c1cccc(-c2cccc(Cl)c2)c1C)S(=O)(=O)c1ccc(OC(C)C(=O)O)c(C)c1C (stereo not drawn) | 631 nM | 501 nM | 7940 nM | – |
| CCCN(c1cccc(-c2ccc(Cl)cc2)c1C)S(=O)(=O)c1ccc(OC(C)C(=O)O)c(C)c1C (stereo not drawn) | 126 nM | 79.4 nM | 20000 nM | – |
| CCCCN(c1cccc(-c2ccccc2Cl)c1C)S(=O)(=O)c1ccc(OC(C)C(=O)O)c(C)c1C (stereo not drawn) | 1580 nM | 2000 nM | 12600 nM | – |
| CCCCN(c1cccc(-c2ccc(OC)cc2)c1C)S(=O)(=O)c1ccc(OC(C)C(=O)O)c(C)c1C (stereo not drawn) | 100 nM | 39.8 nM | 15800 nM | – |
| CCCCN(c1cccc(-c2ccc(Cl)cc2)c1C)S(=O)(=O)c1ccc(OC(CCC)C(=O)O)c(C)c1C (stereo not drawn) | 158 nM | > 10000 nM | 10000 nM | – |
| CCCCN(c1cccc(-c2ccc(OC(F)(F)F)cc2)c1C)S(=O)(=O)c1ccc(OC(C)C(=O)O)c(C)c1C (stereo not drawn) | 79.4 nM | 39.8 nM | 10000 nM | – |
| CCCCN(c1cccc(-c2ccc(Cl)cc2)c1Cl)S(=O)(=O)c1ccc(OC(C)C(=O)O)c(C)c1C (stereo not drawn) | 7.94 nM | 10 nM | 12600 nM | – |
| CCCCC(Oc1ccc(S(=O)(=O)N(CCCC)c2cccc(-c3ccc(Cl)cc3)c2C)c(C)c1C)C(=O)O (stereo not drawn) | 158 nM | > 10000 nM | 10000 nM | – |
| CCCCN(c1cccc(-c2ccc(Cl)cc2)c1C)S(=O)(=O)c1ccc(OC(CC)C(=O)O)c(C)c1C (stereo not drawn) | 63.1 nM | 126 nM | 15800 nM | – |
| CCCCN(c1cccc(-c2ccc(Cl)cc2)c1OC)S(=O)(=O)c1ccc(OC(C)C(=O)O)c(C)c1C (stereo not drawn) | 25.1 nM | 20 nM | 12600 nM | – |
| CCCCN(c1cccc(-c2ccc(Cl)cc2)c1C)S(=O)(=O)c1ccc(O[C@@H](C)C(=O)O)c(C)c1C | 631 nM | 316 nM | 15800 nM | – |
| CCCCN(c1cc(-c2ccc(Cl)cc2)cc(C(F)(F)F)c1)S(=O)(=O)c1ccc(OC(C)C(=O)O)c(C)c1C (stereo not drawn) | 63.1 nM | 100 nM | 12600 nM | 5010 nM |
| CCCCN(c1cccc(-c2ccc(Cl)c(Cl)c2)c1C)S(=O)(=O)c1ccc(OC(C)C(=O)O)c(C)c1C (stereo not drawn) | 126 nM | 126 nM | 20000 nM | – |
| CCCCN(c1cccc(-c2ccc(Cl)cc2)c1C)S(=O)(=O)c1ccc(OC(C)C(=O)O)c(F)c1F (stereo not drawn) | 631 nM | – | 10000 nM | – |
| Cc1c(-c2ccc(Cl)cc2)cccc1N(CCCC(F)(F)F)S(=O)(=O)c1ccc(OC(C)C(=O)O)c(C)c1C (stereo not drawn) | 1260 nM | 2000 nM | 20000 nM | – |
| CCCCN(c1cccc(-c2ccc(Cl)cc2)c1C)S(=O)(=O)c1ccc(OC(C)C(=O)O)c(F)c1Cl (stereo not drawn) | 251 nM | 398 nM | 12600 nM | – |
| CCCCN(c1cc(-c2ccc(Cl)cc2)ccc1C)S(=O)(=O)c1ccc(OC(C)C(=O)O)c(C)c1C (stereo not drawn) | 1580 nM | 794 nM | 10000 nM | 6310 nM |

Results, then the compound that gave them:

| IC50 [1] | EC50 [2] | IC50 [3] | IC50 [4] | SMILES |
| --- | --- | --- | --- | --- |
| 200 nM | 39.8 nM | 20000 nM | 2000 nM | CCCCN(c1ccc(F)c(-c2ccc(Cl)cc2)c1)S(=O)(=O)c1ccc(OC(C)C(=O)O)c(C)c1C (stereo not drawn) |
| 1260 nM | 158 nM | 15800 nM | 5010 nM | Cc1cc(S(=O)(=O)N(CCC(C)C)c2cccc(-c3ccc(C(F)(F)F)cc3)c2)ccc1OCC(=O)O |
| 3160 nM | 1000 nM | 12600 nM | 10000 nM | CCCCN(c1cc(-c2ccc(Cl)cc2)ccc1OC(F)(F)F)S(=O)(=O)c1ccc(OC(C)C(=O)O)c(C)c1C (stereo not drawn) |
| 79.4 nM | 31.6 nM | 15800 nM | – | CCCCN(c1cccc(-c2ccc(C)cc2)c1C)S(=O)(=O)c1ccc(OC(C)C(=O)O)c(C)c1C (stereo not drawn) |
| 15.8 nM | 15.8 nM | 15800 nM | 7940 nM | CCCCN(c1cccc(-c2ccc(Cl)cc2)c1C)S(=O)(=O)c1ccc(OC(C)C(=O)O)c(C2CCCCC2)c1 (stereo not drawn) |
| 10000 nM | > 10000 nM | 20000 nM | 7940 nM | CCCCN(c1c(C)cc(C)c(-c2ccc(Cl)cc2)c1C)S(=O)(=O)c1ccc(OC(C)C(=O)O)c(C)c1C (stereo not drawn) |
| 15.8 nM | – | 15800 nM | – | CCCCN(c1cccc(-c2ccc(C(F)(F)F)cc2)c1C)S(=O)(=O)c1ccc(OC(C)C(=O)O)c(C)c1C (stereo not drawn) |
| 398 nM | 126 nM | 20000 nM | 3160 nM | CCCCN(c1ccc(C)c(-c2ccc(Cl)cc2)c1)S(=O)(=O)c1ccc(OC(C)C(=O)O)c(C)c1C (stereo not drawn) |
| – | – | 15800 nM | – | CCCCN(c1cccc(-c2ccc(Cl)cc2)c1C)S(=O)(=O)c1ccc(OC(C)C(=O)O)c(F)c1OC (stereo not drawn) |
| 12.6 nM | 2 nM | 6310 nM | 2510 nM | CCCCN(c1cccc(-c2ccc(Cl)cc2)c1C)S(=O)(=O)c1ccc(OCC(=O)O)c(C)c1C |
| 3160 nM | 1260 nM | 10000 nM | 1580 nM | CCCCN(c1cc(-c2ccc(Cl)cc2)c(F)cc1F)S(=O)(=O)c1ccc(OC(C)C(=O)O)c(C)c1C (stereo not drawn) |
| 5010 nM | 3160 nM | 10000 nM | 7940 nM | CCCCN(c1cc(-c2ccc(Cl)cc2)c(F)cc1C)S(=O)(=O)c1ccc(OC(C)C(=O)O)c(C)c1C (stereo not drawn) |
| 158 nM | 316 nM | 15800 nM | – | CCCCN(c1cccc(-c2ccc(Cl)cc2)c1C)S(=O)(=O)c1ccc(OC(C)C(=O)O)c(OC)c1Cl (stereo not drawn) |
| 25.1 nM | 12.6 nM | 20000 nM | – | CCCCN(c1cccc(-c2ccc(Cl)cc2)c1C)S(=O)(=O)c1ccc(O[C@H](C)C(=O)O)c(C)c1C |
| 5010 nM | > 10000 nM | > 25100 nM | – | CCCCN(c1cccc(-c2ccc(Cl)cc2)c1C)S(=O)(=O)c1ccc(OC(C)C(=O)O)c(OC)c1OC (stereo not drawn) |
| 794 nM | 794 nM | 15800 nM | – | Cc1c(-c2ccc(Cl)cc2)cccc1N(CC1CC1)S(=O)(=O)c1ccc(OC(C)C(=O)O)c(C)c1C (stereo not drawn) |
